The results in this text go back to patent US5391540A, “Substituted pyridine compounds” (Rohm and Haas Company, priority 1993, dated 1995).

Common to all, as to type: in vivo
In test [1] the test system is Yellow Nutsedge. The experiment in a line: Post-emergence herbicidal activity (Table C). Conditions: Yens, 11.2 kg/ha, 10-14 days. The text has this: (§1) The post-emergent activity is best seen on younger plants treated at the 11/2 to 2 leaf stage. In the tests which follow, larger and more developed plants were used.
(§2) The post-emergent herbicidal activity index used in Table C is as follows:
(§3) Top soil was placed in pans having holes in the bottom and compacted to a depth of 0.95 to 1.27 cm. from the top of the pan. A predetermined number of seeds of each of several dicotyledonous and monocotyledonous annual plant species and/or vegetative propagules for the perennial plant species were placed on the soil and pressed into the soil surface. The seeds and/or vegetative propagules were covered with soil and leveled. The pans were then placed on a bench in the greenhouse and watered as needed for germination and growth. After the plants reached the desired age (two to three weeks), each pan (except the control pans) was moved to a spraying chamber and sprayed by means of an atomizer. The spray solution or suspension contained about 0.4% by volume of an emulsifying agent and a sufficient amount of the candidate chemical to give an application rate of the active ingredient of 11.2 kg/ha while applying a total amount of solution or suspension equivalent to 1870 L/ha. […] The plant identifying codes in Table C are the same as above defined.

Test [2] deals with Velvetleaf. The experiment in a line: Post-emergence herbicidal activity (Table C). Conditions: Vele, 11.2 kg/ha, 10-14 days.
From the text: as §1, §2, §3

In test [3] the test system is Rhizome Johnsongrass. The experiment in a line: Post-emergence herbicidal activity (Table C). Conditions: Rhjg, 11.2 kg/ha, 10-14 days.
From the text: as §1, §2, §3

For test [4], the system named is Quackgrass. The test is described as follows: Post-emergence herbicidal activity (Table C). The following applies: Rhqg, 11.2 kg/ha, 10-14 days.
From the text: as §1, §2, §3

The test system of test [5] is Morningglory. The experiment in a line: Post-emergence herbicidal activity (Table C). Conditions: Mogl, 11.2 kg/ha, 10-14 days.
From the text: as §1, §2, §3

The test system of test [6] is Canada thistle. The test is described as follows: Post-emergence herbicidal activity (Table C). Conditions: Cath, 11.2 kg/ha, 10-14 days.
From the text: as §1, §2, §3

Test [7] relates to Cocklebur. The test is described as follows: Post-emergence herbicidal activity (Table C). The following applies: Cobu, 11.2 kg/ha, 10-14 days.
From the text: as §1, §2, §3

Test [8] has as its system Downy Brome. The experiment in a line: Post-emergence herbicidal activity (Table C). The following applies: Dobr, 11.2 kg/ha, 10-14 days.
From the text: as §1, §2, §3

Test [9] has as its system Pennsylvania Smartweed. The test is described as follows: Post-emergence herbicidal activity (Table C). Conditions: Pesw, 11.2 kg/ha, 10-14 days.
From the text: as §1, §2, §3

Test [10] has as its system Yellow Nutsedge. The test is described as follows: Pre-emergent herbicidal activity (Table A). Conditions: Yens, 11.2 kg/ha, 10-14 days. An outline of the steps:
(§4)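 Percent inhibition per species, scored on a rating scale, after pre-emergent soil incorporation: test compound in acetone or water carrier mixed into cover soil, layered over seeded topsoil or vegetative propagules.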

Test [11] deals with Velvetleaf. The experiment in a line: Pre-emergent herbicidal activity (Table A). Conditions: Vele, 11.2 kg/ha, 10-14 days. The method in brief: as §4
Test [12] has as its system Rhizome Johnsongrass. The test is described as follows: Pre-emergent herbicidal activity (Table A). Conditions: Rhjg, 11.2 kg/ha, 10-14 days. The method in brief: as §4
Test [13] deals with Common Lambsquarters. The test is described as follows: Pre-emergent herbicidal activity (Table A). Conditions: Colq, 11.2 kg/ha, 10-14 days. The method in brief:
as §4

Test [14] deals with Quackgrass. The experiment in a line: Pre-emergent herbicidal activity (Table A). The following applies: Rhqg, 11.2 kg/ha, 10-14 days. The method in brief:
as §4

Test [15] relates to Barnyardgrass. The experiment in a line: Pre-emergent herbicidal activity (Table A). The following applies: Bygr, 11.2 kg/ha, 10-14 days. An outline of the steps:
as §4

The test system of test [16] is Morningglory. The test is described as follows: Pre-emergent herbicidal activity (Table A). Conditions: Mogl, 11.2 kg/ha, 10-14 days. An outline of the steps: as §4
Test [17] deals with Canada thistle. The experiment in a line: Pre-emergent herbicidal activity (Table A). Conditions: Cath, 11.2 kg/ha, 10-14 days. The method in brief:
as §4

In test [18] the test system is Cocklebur. The experiment in a line: Pre-emergent herbicidal activity (Table A). The following applies: Cobu, 11.2 kg/ha, 10-14 days. The method in brief:
as §4

In test [19] the test system is Downy Brome. The experiment in a line: Pre-emergent herbicidal activity (Table A). Conditions: Dobr, 11.2 kg/ha, 10-14 days. The method in brief: as §4
Test [20] relates to Pennsylvania Smartweed. The experiment in a line: Pre-emergent herbicidal activity (Table A). Conditions: Pesw, 11.2 kg/ha, 10-14 days. An outline of the steps:
as §4

Test [21] deals with Common Lambsquarters. The test is described as follows: Post-emergence herbicidal activity (Table C). Conditions: Colq, 11.2 kg/ha, 10-14 days.
From the text: (§5) In the tests which follow, larger and more developed plants were used.
as §2
as §3, with “atomizer.” for “atomizer. The spray solution or suspension contained about 0.4% by volume of an emulsifying agent and a sufficient amount of the candidate chemical to give an application rate of the active ingredient of 11.2 kg/ha while applying a total amount of solution or suspension equivalent to 1870 L/ha.”

For test [22], the system named is Barnyardgrass. The experiment in a line: Post-emergence herbicidal activity (Table C). Conditions: Bygr, 11.2 kg/ha, 10-14 days.
From the text: as §5, §2
as §3, with “atomizer.” for “atomizer. The spray solution or suspension contained about 0.4% by volume of an emulsifying agent and a sufficient amount of the candidate chemical to give an application rate of the active ingredient of 11.2 kg/ha while applying a total amount of solution or suspension equivalent to 1870 L/ha.”

On to “3-pyridinecarboxylic acid, 5-(aminocarbonyl)-1,2,3,4-tetrahydro-4-(2-methylpropyl)-6-(pentafluoroethyl)-, ethyl ester [Compound 10]”, for which the “post-emergent herbicidal activity index” value in test [1], in test [2], in [3], in test [4], in [5] and in test [6] was 0 (0-24% inhibition) each time. The “post-emergent herbicidal activity index” value in test [7], in [8], in test [9], in test [21] and in test [22] was 0 (0-24% inhibition) each time. In addition, the “herbicidal rating (% inhibition)” value in test [10], in test [11], in test [12], in test [13], in test [14] and in [15] was 0 (0-24) throughout. Further, the “herbicidal rating (% inhibition)” value in test [16], in test [17], in [18], in [19] and in test [20] was 0 (0-24) throughout.
